According to patent publication US7678784B2, “Oxime-containing macrocyclic acyl guanidines as β-secretase inhibitors” (Bristol-Myers Squibb Company, priority 2006, dated 2010):
Where two headings read alike, the source gives them in different places.

Tests used:
[1] = rcm bond, Grubbs 1st generation catalyst, dichloromethane, 65.0 °C
BACE1 enzyme = target: T1, BACE1 enzyme (Homo sapiens, UniProt P56817); assay: Radioligand displacement assay with a radiolabeled BACE inhibitor on HEK293-9B.A1 cell homogenate; type: binding; conditions: displacement of 1 nM tritiated radioligand, HEK293-9B.A1 homogenate, pH 5.0, 1.5 hr at 25° C.; read-out: Activity Rating (Activity based on IC50 values)
T1 construct: The HEK293-9B.A1 cell line, which overexpresses the BACE1 enzyme, was derived from HEK293 cells; endogenous in cells; washed 48,000 x g pellet of cell homogenate
T1 sequence (P56817 46-501): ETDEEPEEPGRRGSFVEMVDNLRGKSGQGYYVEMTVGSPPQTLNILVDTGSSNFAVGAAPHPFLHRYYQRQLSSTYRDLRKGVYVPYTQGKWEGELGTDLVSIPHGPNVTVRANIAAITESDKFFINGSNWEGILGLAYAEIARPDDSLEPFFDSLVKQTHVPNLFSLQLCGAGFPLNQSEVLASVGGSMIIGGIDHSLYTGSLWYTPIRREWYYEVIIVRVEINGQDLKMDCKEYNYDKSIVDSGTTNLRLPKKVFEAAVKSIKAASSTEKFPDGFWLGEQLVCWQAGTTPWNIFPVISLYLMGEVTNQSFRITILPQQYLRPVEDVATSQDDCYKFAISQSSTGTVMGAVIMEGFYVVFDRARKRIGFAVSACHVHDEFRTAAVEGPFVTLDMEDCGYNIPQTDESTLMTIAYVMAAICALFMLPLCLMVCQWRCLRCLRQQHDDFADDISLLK
Text: There are a number of methods by which inhibitors of the BACE enzyme can be identified experimentally. The enzyme can be obtained from membrane samples from natural tissues or cultured cells or can be expressed recombinantly in a host cell by well known methods of molecular biology. The whole enzyme or a portion thereof can be expressed, for example, in bacterial, insect or mammalian cells to obtain a catalytically active enzyme species. The enzymatic activity and/or ligand binding capability of the enzyme can be assessed within these membrane samples, or the enzyme can be purified to varying extents. As an illustrative example, the nucleic acid sequence encoding the pro and catalytic domains of human BACE can be appended on the 5′ end with an untranslated and signal sequence from the gene for acetylcholinesterase, and on the 3′ end with a sequence encoding a poly-histidine tag. This cDNA can then be expressed in Drosophila melanogaster S2 cells in which the signal and pro sequences of the transcribed/translated protein are removed by cellular proteases and the catalytic domain, appended by a C-terminal poly-histidine tag, is secreted out into the cellular medium. The enzyme can then be purified from the culture medium by nickel affinity chromatography by methods well known to those trained in the art [Mallender, W. et al., “Characterization of recombinant, soluble beta-secretase from an insect cell expression system.” Mol. Pharmacol. 2001, 59: 619-626]. Similar strategies for expressing and purifying various forms of BACE in bacterial, mammalian and other cell types would be known to one skilled in the art. A preferred method for determining the potency of a test compound in binding to the BACE enzyme is by monitoring the displacement of a suitable radioligand.
Radioligand displacement assays with a radiolabeled BACE inhibitor (WO 2004 013098, compound 3, where the methoxy group is substituted for C(^3H)3) were carried out using standard methods (Keen, M. (1999) in Receptor Binding Techniques (Walker, J. M. ed) p. 106 Humana Press, Totowa, N.J.). The HEK293-9B.A1 cell line, which overexpresses the BACE1 enzyme, was derived from HEK293 cells (Simmons, N. L. (1990) A cultured human renal epitheloid cell line responsive to vasoactive intestinal peptide. Exp. Physiol. 75:309-19.) by RAGE™ M (Harrington, J. J. et al. (2001) Creation of genome-wide protein expression libraries using random activation of gene expression. Nat. Biotechnol. 19:440-5; U.S. Pat. Nos. 6,410,266 and 6,361,972). T225 flask cultures of HEK293-9B.A1 were grown to 80% confluency in DMEM supplemented with 2 mM L-glutamine, 10 μg/ml penicillin, 10 μg/ml streptomycin, 3 μg/ml puromycin, 100 nM methotrexate, and 10% fetal bovine serum (Invitrogen, Carlsbad, Calif.), harvested, and resuspended at 2×10^8 cells per 10 ml of lysis buffer consisting of 50 mM HEPES pH 7.0 containing a protease inhibitor cocktail of AEBSF 104 μM, aprotinin 80 nM, leupeptin 2 μM, bestatin 4 μM, pepstatin A 1.5 μM, and E-64 1.4 μM (0.1% of protease inhibitor cocktail P8340, Sigma-Aldrich, St. Louis, Mo.) at 4° C. The resuspended cells were homogenized using a Polytron (Brinkman, Westbury, N.Y.) at setting 6 for 10 sec., then centrifuged at 48,000×g for 10 min. The resulting pellet was washed by repeating the resuspension, homogenization and centrifugation steps. The final pellet was resuspended in buffer at 4° C. to yield a total protein concentration of 5 mg/ml, then aliquots were frozen in liquid nitrogen for further storage at −70° C. Immediately before carrying out a binding assay, an aliquot of cell homogenate was thawed and diluted to a concentration of 100 μg/ml in assay buffer consisting of 50 mM HEPES pH 5.0 and 0.1% CHAPSO. […]

Row | SMILES | IC50 (BACE1 enzyme) [nM] | other results
1 | CCON=C1CC(=O)N=C(NC(=O)OC(C)(C)C)NCc2cc(Cl)c(c(Cl)c2)NC(=O)CN(C(=O)OC(C)(C)C)CC=CCOc2ccc1cc2 |  | ring closure, yield of all isomers ([1]; from C=CCOc1ccc(C(CC(=O)N=C(NCc2cc(Cl)c(NC(=O)CN(CC=C)C(=O)OC(C)(C)C)c(Cl)c2)NC(=O)OC(C)(C)C)=NOCC)cc1, 2.85 mM, 4.0 h): 82.8%
2 | CCON=C1CC(=O)N=C(NC(=O)OC(C)(C)C)NCc2cc(Cl)c(c(Cl)c2)NC(=O)CN(C(=O)OC(C)(C)C)CCC=CCOc2ccc1cc2 |  | ring closure, yield of all isomers ([1]; from C=CCCN(CC(=O)Nc1c(Cl)cc(CNC(=NC(=O)CC(=NOCC)c2ccc(OCC=C)cc2)NC(=O)OC(C)(C)C)cc1Cl)C(=O)OC(C)(C)C, 3.0 mM, 4.0 h): 69.1%
3 | CCON=C1CC(=O)N=C(NC(=O)OC(C)(C)C)NCc2cc(Cl)c(c(Cl)c2)NC(=O)CN(C(=O)OC(C)(C)C)CCCC=CCOc2ccc1cc2 |  | ring closure, yield of all isomers ([1]; from C=CCCCN(CC(=O)Nc1c(Cl)cc(CNC(=NC(=O)CC(=NOCC)c2ccc(OCC=C)cc2)NC(=O)OC(C)(C)C)cc1Cl)C(=O)OC(C)(C)C, 2.62 mM, 1.5 h): 82.9%
4 | CCON=C1CC(=O)N=C(NC(=O)OC(C)(C)C)NCc2cc(Cl)c(c(Cl)c2)NC(=O)CN(C(=O)OC(C)(C)C)CCCCC=CCOc2ccc1cc2 |  | ring closure, yield of all isomers ([1]; from C=CCCCCN(CC(=O)Nc1c(Cl)cc(CNC(=NC(=O)CC(=NOCC)c2ccc(OCC=C)cc2)NC(=O)OC(C)(C)C)cc1Cl)C(=O)OC(C)(C)C, 2.93 mM, 2.0 h): 80.5%
5 | CCON=C1CC(=O)/N=C(\N)NCc2cc(Cl)c(c(Cl)c2)NC(=O)CNCC=CCOc2ccc1cc2 (single isomer, unassigned; isomer a) [Example 1, Isomer A of 4-amino-23,26-dichloro-13-oxa-3,5,18,21-tetraazatricyclo[20.2.2.2^9,12]octacosa-1(24),4,9,11,15,22,25,27-octaene-6,8,20-trione 8-(O-ethyloxime)] | > 50 | 
6 | CCON=C1CC(=O)N=C(N)NCc2cc(Cl)c(c(Cl)c2)NC(=O)CNCCC=CCOc2ccc1cc2 (single isomer, unassigned; isomer a) [Example 4, Isomer A of 4-amino-24,27-dichloro-13-oxa-3,5,19,22-tetraazatricyclo-[21.2.2.29,12]nonacosa-1(25),4,9,11,15,23,26,28-octaene-6,8,21-trione 8-(O-ethyloxime)] | 5 to 50 | 
7 | CCON=C1CC(=O)N=C(N)NCc2cc(Cl)c(c(Cl)c2)NC(=O)CNCCCC=CCOc2ccc1cc2 (single isomer, unassigned; isomer a) [Example 7, Isomer A of 4-amino-25,28-dichloro-13-oxa-3,5,20,23-tetraazatricyclo[22.2.2.29,12]triaconta-1(26),4,9,11,15,24,27,29-octaene-6,8,22-trione 8-(O-ethyloxime)] | < 5 | 
8 | CCON=C1CC(=O)/N=C(\N)NCc2cc(Cl)c(c(Cl)c2)NC(=O)CNCC=CCOc2ccc1cc2 (single isomer, unassigned; isomer b) [Example 2, Isomer B of 4-amino-23,26-dichloro-13-oxa-3,5,18,21-tetraazatricyclo-[20.2.2.2^9,12]octacosa-1(24),4,9,11,15,22,25,27-octaene-6,8,20-trione 8-(O-ethyloxime)] | > 50 | 
9 | CCON=C1CC(=O)N=C(N)NCc2cc(Cl)c(c(Cl)c2)NC(=O)CNCCC=CCOc2ccc1cc2 (single isomer, unassigned; isomer b) [Example 5, Isomer B of 4-amino-24,27-dichloro-13-oxa-3,5,19,22-tetraazatricyclo-[21.2.2.29,12]nonacosa-1(25),4,9,11,15,23,26,28-octaene-6,8,21-trione 8-(O-ethyloxime)] | 5 to 50 | 
10 | CCON=C1CC(=O)N=C(N)NCc2cc(Cl)c(c(Cl)c2)NC(=O)CNCCCC=CCOc2ccc1cc2 (single isomer, unassigned; isomer b) [Example 8, Isomer B of 4-amino-25,28-dichloro-13-oxa-3,5,20,23-tetraazatricyclo-[22.2.2.29,12]triaconta-1(26),4,9,11,15,24,27,29-octaene-6,8,22-trione 8-(O-ethyloxime)] | < 5 | 
11 | CCON=C1CC(=O)N=C(N)NCc2cc(Cl)c(c(Cl)c2)NC(=O)CNCCCCOc2ccc1cc2 [Example 3, 4-Amino-23,26-dichloro-13-oxa-3,5,18,21-tetraazatricyclo[20.2.2.2^9,12]-octacosa-1(24),4,9,11,22,25,27-heptaene-6,8,20-trione 8-(O-ethyloxime)] | 5 to 50 | 
12 | CCON=C1CC(=O)N=C(N)NCc2cc(Cl)c(c(Cl)c2)NC(=O)CNCCCCCOc2ccc1cc2 [Example 6] | 5 to 50 | 
13 | CCON=C1CC(=O)N=C(N)NCc2cc(Cl)c(c(Cl)c2)NC(=O)CNCCCCCCOc2ccc1cc2 [Example 9, 4-Amino-25,28-dichloro-13-oxa-3,5,20,23-tetraazatricyclo[22.2.2.2^9,12]-triaconta-1(26),4,9,11,24,27,29-heptaene-6,8,22-trione 8-(O-ethyloxime)] | < 5 | 
14 | CCON=C1CC(=O)N=C(N)NCc2cc(Cl)c(c(Cl)c2)NC(=O)CNCCCCC=CCOc2ccc1cc2 [Example 10, 4-Amino-26,29-dichloro-13-oxa-3,5,21,24-tetraazatricyclo-[23.2.2.2^9,12]hentriaconta-1(27),4,9,11,15,25,28,30-octaene-6,8,23-trione 8-(O-ethyloxime)] | < 5 | 
15 | CCON=C1CC(=O)N=C(N)NCc2cc(Cl)c(c(Cl)c2)NC(=O)CNCCCCCCCOc2ccc1cc2 [Example 11, 4-Amino-26,29-dichloro-13-oxa-3,5,21,24-tetraazatricyclo-[23.2.2.2^9,12]hentriaconta-1(27),4,9,11,25,28,30-heptaene-6,8,23-trione 8-(O-ethyloxime)] | < 5 | 
